Results: patent US7049311B1, “Pyrrolbenzodiazepines” (Spirogen Limited, priority 1998, dated 2006)
Like-named read-outs stand apart in the source and are kept apart here.

Experiments:
[1] = tested on: A2780cisR; assay: Cytotoxicity in cisplatin-resistant A2780cisR (Example 9); format: cell-based, human
Description: (§1) Relative to the parental line, the A2780cisR subline is known to have elevated GSH levels, an increased level of repair of DNA-cisplatin adducts, and a decreased ability to uptake cisplatin (M. Smellie, et al., Br. J. Cancer, 1994, 70, 48).
(§2) The results, which were obtained by incubating the cells with the compounds for 96 hours at 37° C., and assessing the cell number using Sulforhodamine B, are presented in the table below: […]

[2] = tested on: human ovarian carcinoma cell line A2780; assay: Cytotoxicity in A2780 (Example 9); format: cell-based; conditions: read-out: IC50 A2780
Description: as §1, §2

[3] = tested on: calf thymus DNA; assay: DNA helix melting temperature assay; format: binding; conditions: [PBD]:[DNA] ratio of 1:5, calf thymus DNA
Description: The first assay, which is described in G. B. Jones, et al., Anti-Cancer Drug Des., 1990, 5, 249, which is incorporated herein by reference, determines the effect of the test compound on the helix melting temperature of DNA. This assay is designed to give an indication of the strength and extent of cross-linking of the DNA strands by the test compound (i.e. a measure of the stabilisation of the DNA upon ligand binding).
The melting temperature was determined for a 1:5 molar ratio of [ligand] [DNA], where the calf thymus DNA concentration is […] in aqueous sodium phosphate buffer (10 mM sodium phosphate+1 mM EDTA, pH 7.00±0.01). For calf thymus DNA at pH 7.00±0.01, the melting temperature is 67.83±0.06° C. (mean value from 30 separate determinations).

[4] = tested on: A2780cisR; assay: Ovarian carcinoma cytotoxicity assay; format: cell-based, human; conditions: Homo sapiens, A2780cisR
Description: (§3) Compounds of the invention (and Anthramycin as a comparison) were evaluated for their cytotoxic activity in ovarian cell lines by Dr Lloyd R. Kelland's group at The Institute of Cancer Research, Sutton, UK. The five cell lines investigated were SKOV-3, A2780/A2780cisR and CH1/CH1cisR (cis R denotes that the cell line is resistant to cisplatin).
(§4) Single viable cells were seeded in growth medium (160 μL) in […] microtitre plates and allowed to attach overnight. […] After 96 hours, the medium was removed and the remaining cells fixed by exposure to 10% trichloroacetic acid on ice for 30 minutes. The wells were then washed 3-4 times with tap water, air dried overnight and treated with 100 μL of sulphorhodamine B (0.4%) dissolved in 1% acetic acid. Staining was allowed to continue for 10-15 minutes, then the wells were washed 3-4 times with 1% acetic acid, air dried and then added to Tris base (100 μL of 10 mM). Plates were then shaken and absorbance readings at 540 nm were determined using a plate reader. By using the Quattro-Pro software package, the IC50 values were calculated from plots of concentration versus percentage absorbance (compared with 8 untreated wells).

[5] = tested on: A2780; assay: Ovarian carcinoma cytotoxicity assay; format: cell-based, human; conditions: Homo sapiens
Description: as §3, §4

[6] = tested on: CH1cisR; assay: Ovarian carcinoma cytotoxicity assay; format: cell-based; conditions: Homo sapiens, CH1cisR
Description: as §3, §4

[7] = tested on: SKOV-3; assay: Ovarian carcinoma cytotoxicity assay; format: cell-based; conditions: Homo sapiens
Description: as §3, §4

[8] = tested on: CH1; assay: Ovarian carcinoma cytotoxicity assay; format: cell-based; conditions: Homo sapiens
Description: as §3, §4

[9] = tested on: SNB-75; assay: NCI in vitro cytotoxicity screen; format: cell-based; conditions: Homo sapiens, SNB-75, 48 h, read-out: LC50
Description: (§5) The National Cancer Institute (NCI), Bethesda, Md., USA has available an in vitro cytotoxicity screen which consists of approximately 60 human tumour cell lines against which compounds are tested at a minimum of five concentrations each differing 10-fold. A 48 hour continuous exposure protocol is used, where cell viability or growth is estimated with an SRB protein assay.
(§6) The test compounds were evaluated against approximately 60 human tumour cell lines. The NCI screening procedures were described in detail by Monks and co-workers (Monks, A et al., Journal of the National Cancer Institute, 1991, 83, 757). Briefly, cell suspensions were diluted according to the particular cell type and the expected target cell density (5000-40,000 cells per well based on cell growth characteristics), and added by pipette (100 μL) into 96-well microtitre plates. The cells were allowed a preincubation period of 24 hours at 37° C. for stabilisation. Dilutions at twice the intended test concentration were added at time zero in 100 μL aliquots to the wells. The test compounds were evaluated at five 10-fold dilutions (10^−4, 10^−5, 10^−6, 10^−7 and 10^−[…]). The test compounds were incubated for 48 hours in 5% CO2 atmosphere and 100% humidity. The cells were then assayed using the sulphorhodamine B assay. A plate reader was used to read the optical densities and a microcomputer processed the readings into LC50 values, which is the dosage required to kill half of the cells.

[10] = tested on: UACC-62; assay: NCI in vitro cytotoxicity screen; format: cell-based; conditions: Homo sapiens, UACC-62, 48 h, read-out: LC50
Description: as §5, §6

[11] = tested on: NCI-H460; assay: NCI in vitro cytotoxicity screen; format: cell-based; conditions: Homo sapiens, NCI-H460, 48 h, read-out: LC50
Description: as §5, §6

[12] = tested on: MALME-3M; assay: NCI in vitro cytotoxicity screen; format: cell-based; conditions: Homo sapiens, Malme-3M, 48 h, read-out: LC50
Description: as §5, §6

[13] = tested on: HCC-2998; assay: NCI in vitro cytotoxicity screen; format: cell-based; conditions: Homo sapiens, HCC 2998, 48 h, read-out: LC50
Description: as §5, §6

[14] = tested on: KM12; assay: NCI in vitro cytotoxicity screen; format: cell-based; conditions: Homo sapiens, KM12, 48 h, read-out: LC50
Description: as §5, §6

[15] = tested on: COLO 205; assay: NCI in vitro cytotoxicity screen; format: cell-based; conditions: Homo sapiens, COLO 205, 48 h, read-out: LC50
Description: as §5, §6

[16] = tested on: SK-MEL-2; assay: NCI in vitro cytotoxicity screen; format: cell-based; conditions: Homo sapiens, SK-MEL-2, 48 h, read-out: LC50
Description: as §5, §6

[17] = tested on: NCI-H522; assay: NCI in vitro cytotoxicity screen; format: cell-based; conditions: Homo sapiens, NCI-H522, 48 h, read-out: LC50
Description: as §5, §6

[18] = tested on: M14; assay: NCI in vitro cytotoxicity screen; format: cell-based; conditions: Homo sapiens, M14, 48 h, read-out: LC50
Description: as §5, §6

[19] = tested on: MDA-MB-435; assay: NCI in vitro cytotoxicity screen; format: cell-based; conditions: Homo sapiens, MDA-MB-435, 48 h, read-out: LC50
Description: as §5, §6

[20] = tested on: RXF 393; assay: NCI in vitro cytotoxicity screen; format: cell-based; conditions: Homo sapiens, RXF 393, 48 h, read-out: LC50
Description: as §5, §6

[21] = tested on: SK-MEL-28; assay: NCI in vitro cytotoxicity screen; format: cell-based; conditions: Homo sapiens, SK-MEL-28, 48 h, read-out: LC50
Description: as §5, §6

[22] = tested on: UACC-257; assay: NCI in vitro cytotoxicity screen; format: cell-based; conditions: Homo sapiens, UACC-257, 48 h, read-out: LC50
Description: as §5, §6

[23] = tested on: SK-MEL-5; assay: NCI in vitro cytotoxicity screen; format: cell-based; conditions: Homo sapiens, SK-MEL-5, 48 h, read-out: LC50
Description: as §5, §6

[24] = tested on: approximately 60 human tumour cell lines; assay: NCI in vitro cytotoxicity screen, whole panel; format: cell-based
Description: as §5
as §6, with “The test compounds were incubated for 48 hours in 5% CO2 atmosphere and 100% humidity. The cells were then assayed using the sulphorhodamine B assay.” left out

[25] = tested on: NCI-H23; assay: NCI in vitro cytotoxicity screen; format: cell-based; conditions: Homo sapiens, NCI-H23, 48 h, read-out: LC50
Description: as §5, §6

[26] = tested on: SF-539; assay: NCI in vitro cytotoxicity screen; format: cell-based; conditions: Homo sapiens, SF-539, 48 h, read-out: LC50
Description: as §5, §6

[27] = tested on: MDA-N; assay: NCI in vitro cytotoxicity screen; format: cell-based; conditions: Homo sapiens, 48 h, read-out: LC50
Description: as §5, §6

[28] = cisplatin-resistant, 96 hours, sulphorhodamine B, read-out: IC50 A2780cisR
[29] = A2780, 96 hours, sulphorhodamine B, read-out: IC50 A2780
[30] = cisplatin-resistant, 96 hours, sulphorhodamine B, read-out: IC50 CH1cisR
[31] = SK-OV-3, 96 hours, sulphorhodamine B, read-out: IC50 Skov3
[32] = CH1, 96 hours, sulphorhodamine B, read-out: IC50 CH1
[33] = 96 h, read-out: IC50 A2780cisR, cisplatin-resistant, 96 hours, sulphorhodamine B
[34] = A2780, 96 h, read-out: IC50 A2780, 96 hours, sulphorhodamine B
[35] = 96 h, read-out: IC50 CH1cisR, cisplatin-resistant, 96 hours, sulphorhodamine B
[36] = SK-OV-3, 96 h, read-out: IC50 Skov3, 96 hours, sulphorhodamine B
[37] = CH1, 96 h, read-out: IC50 CH1, 96 hours, sulphorhodamine B

SMILES	IC50 [4, 28] [nM]	IC50 [5, 29] [nM]	IC50 [6, 30] [nM]	IC50 [7, 31] [nM]	IC50 [8, 32] [nM]	CC50 [10] [nM]	CC50 [12] [nM]	CC50 [13] [nM]	CC50 [15] [nM]	CC50 [16] [nM]	CC50 [19] [nM]	CC50 [20] [nM]	CC50 [21] [nM]	other results
N.N.[Cl][Pt][Cl] [Cisplatin, reference compound]														IC50 ([1]; cisplatin-resistant subline, 96 hours at 37° C., Sulforhodamine B, read-out: IC50 A2780cis^a): 8400 nM; IC50 ([2]; 96 hours at 37° C., Sulforhodamine B): 265 nM
COc1cc2c(cc1OCCCOc1cc3c(cc1OC)C(=O)N1CCC[C@@H]1C=N3)N=C[C@@H]1CCCN1C2=O [DSB-120, reference compound]														IC50 ([1]; Homo sapiens, A2780cisR, 96 h, read-out: IC50 A2780cisR): 210 nM; IC50 ([1]; Homo sapiens, A2780cisR, 96 h, read-out: IC50 A2780cis^a): 210 nM; IC50 ([2]; Homo sapiens, A2780, 96 hours): 7.2 nM; Induced ΔTa after incubation at 37° C. for 0 h ([3]; pH 7.00, 0 h): 10.2 °C; Induced ΔTa after incubation at 37° C. for 4 h ([3]; pH 7.00, 4 h): 13.1 °C; Induced ΔTa after incubation at 37° C. for 18 h ([3]; pH 7.00, 18 h): 15.1 °C
COC(=O)CC1=CN2C(=O)c3cc(OC)c(OCc4ccccc4)cc3N=C[C@@H]2C1 [UP2003 (24)]	120	14.5	40	12	16	700	700	5200	1400					CC50 [9]: 6000 nM; CC50 [11]: 7600 nM; CC50 [14]: 9500 nM
O=C1c2cc(-c3ccccc3)ccc2N=C[C@@H]2CCCN12 [UP2026 (136), (11aS)-7-Phenyl-1,2,3,11a-tetrahydro-5H-pyrrolo[2,1-c][1,4]benzodiazepin-5-one]	3700	1150	1450	4900	1500	6600	6100	6400	8800	7400	6300	7600	7100	CC50 [17]: 7800 nM; CC50 [18]: 7800 nM; CC50 [22]: 7700 nM; CC50 [23]: 9000 nM; cytotoxicity in the CNS cell line panel ([24]; CNS panel): inactive
O=C1c2cc(-c3cccc([N+](=O)[O-])c3)ccc2N=C[C@@H]2CCCN12 [UP2029 (140), (11aS)-7-(3′-Nitrophenyl)-1,2,3,11a-tetrahydro-5H-pyrrolo[2,1-c][1,4]benzodiazepin-5-one]	32000	34500	14000	1400	22500									cytotoxic activity (LC50 below 10 μM) ([24]; all panels): completely abolished cytotoxic activity
COc1cc2c(cc1OCc1ccccc1)N=C[C@@H]1CC(CCOC(C)=O)=CN1C2=O [UP2051 (31), (11aS)-2-(Acyloxy-2-ethyl)-8-benzyloxy-7-methoxy-1,2,3,11a-tetrahydro-5H-pyrrolo[2,1-c][1,4]benzodiazepin-5-one]							5100	5200		7600		800		IC50 [4, 33]: 270 nM; IC50 [5, 34]: 100 nM; IC50 [6, 35]: 160 nM; IC50 [7, 36]: 460 nM; IC50 [8, 37]: 105 nM; CC50 [25]: 9300 nM
C=C1C[C@H]2C=Nc3cc(OC)c(OC)cc3C(=O)N2C1 [UP2064 (74), (11aS)-7,8-Dimethoxy-2-methylidene-1,2,3,11a-tetrahydro-5H-pyrrolo[2,1-c][1.4]benzodiazepin-5-one]	360	150	84	390	66	600	900		600	1700	2300	800	2600	CC50 [22]: 7400 nM
COC(=O)CC1=CN2C(=O)c3cc(OC)c(OC)cc3N=C[C@@H]2C1 [UP2065 (42)]	460	360	150	450	115		4700		4000	3500	800	800		
COc1cc2c(cc1OCc1ccccc1)N=C[C@@H]1CC(=O)CN1C2=O [UP2067 (172)]						3000	7400		5800		800	800	6600	IC50 [4, 33]: 390 nM; IC50 [5, 34]: 115 nM; IC50 [6, 35]: 180 nM; IC50 [7, 36]: 540 nM; IC50 [8, 37]: 165 nM; CC50 [9]: 5400 nM; CC50 [26]: 6800 nM; CC50 [17]: 5000 nM; CC50 [18]: 800 nM; CC50 [27]: 600 nM
